We go through three compounds from US20220110919A1, “METHODS OF MODULATING LEUKOCYTES ACTIVATION AND THROMBOCYTE CLEARANCE WITH INHIBITORS OF SPECIFIC NEURAMINIDASE ISOENZYMES” (The Governors of the University of Alberta, priority 2018, published 2022).

One may read the IC50 as the concentration that inhibits the measured activity by half.

Bounds are passed on as bounds.

Experiment [1] has as its target T1, NEU1 (Homo sapiens, UniProt Q99519).
T1 construct: His; made in house; host or cells: HEK293 cells (cell lysate, unpurified)
The experiment can be described thus: Inhibition assay, 4MU-NANA cleavage, NEU1. The experiment is classed as biochemical. Conditions: 4MU-NANA as the substrate; pH 4.5; read-out: IC50 NEU1. The protocol:
(§1) 4MU-NANA was then added to the mixture, making the final concentration of 4MU-NANA as 50 μM and the total volume of the reaction mixture as 20 μL. […] Assays were performed with duplicates for each point and IC50 was obtained by plotting the data with Graphpad™ Prism 5.0.

Experiment [2] concerns the target T2, NEU2 (Homo sapiens, UniProt Q9Y3R4).
T2 construct: MBP (N); made in house; host or cells: E. coli
The experiment can be described thus: Inhibition assay, 4MU-NANA cleavage, NEU2. It is filed as biochemical. Conditions: 4MU-NANA as the substrate; pH 5.5. The protocol:
as §1

In experiment [3] the test system is NEU1, NEU2, NEU3, NEU4. The experiment can be described thus: Target isoenzyme and selectivity from IC50 data of Table I. The experiment is classed as biochemical, human. Conditions: from IC50 values of Table I.
Experiment [4] has as its target T3, NEU3 (Homo sapiens, UniProt Q9UQ49).
T3 construct: MBP (N); made in house; host or cells: E. coli
T3 sequence (Q9UQ49 1-428): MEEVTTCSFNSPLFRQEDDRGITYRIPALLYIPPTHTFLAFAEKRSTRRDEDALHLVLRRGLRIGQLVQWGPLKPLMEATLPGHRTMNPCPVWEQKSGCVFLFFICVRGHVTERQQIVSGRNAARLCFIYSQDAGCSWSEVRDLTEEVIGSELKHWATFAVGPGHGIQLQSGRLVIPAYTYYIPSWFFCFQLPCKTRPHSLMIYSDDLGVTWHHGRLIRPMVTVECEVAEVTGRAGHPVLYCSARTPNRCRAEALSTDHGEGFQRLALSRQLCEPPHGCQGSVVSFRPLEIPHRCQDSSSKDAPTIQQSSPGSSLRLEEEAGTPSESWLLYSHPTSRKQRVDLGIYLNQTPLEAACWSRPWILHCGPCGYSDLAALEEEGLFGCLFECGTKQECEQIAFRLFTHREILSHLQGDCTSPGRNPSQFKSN
Kind of experiment: Inhibition assay, 4MU-NANA cleavage, NEU3. The note with it: 4MU-NANA as the substrate; pH 4.5; read-out: IC50 NEU3. It is filed as biochemical. The protocol:
as §1

The target in experiment [5] is T4, NEU4 (Homo sapiens, UniProt Q8WWR8).
T4 construct: GST; made in house; host or cells: E. coli
T4 sequence (Q8WWR8 1-484): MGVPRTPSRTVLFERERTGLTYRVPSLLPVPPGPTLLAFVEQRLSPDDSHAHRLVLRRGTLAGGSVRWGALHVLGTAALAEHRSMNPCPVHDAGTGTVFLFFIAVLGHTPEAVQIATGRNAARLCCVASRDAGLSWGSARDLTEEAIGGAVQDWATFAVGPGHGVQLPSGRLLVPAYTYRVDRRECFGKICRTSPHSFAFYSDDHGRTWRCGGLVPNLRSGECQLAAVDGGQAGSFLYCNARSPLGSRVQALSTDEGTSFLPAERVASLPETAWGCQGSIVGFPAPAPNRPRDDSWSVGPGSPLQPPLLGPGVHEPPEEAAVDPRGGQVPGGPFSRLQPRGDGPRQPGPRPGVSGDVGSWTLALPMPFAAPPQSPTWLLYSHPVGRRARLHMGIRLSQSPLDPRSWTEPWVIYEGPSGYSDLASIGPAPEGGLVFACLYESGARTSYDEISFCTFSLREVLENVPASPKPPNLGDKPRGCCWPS
Kind of experiment: Inhibition assay, 4MU-NANA cleavage, NEU4. The experiment is classed as biochemical. Conditions: 4MU-NANA as the substrate; pH 4.5; read-out: IC50 NEU4. The protocol:
as §1

Experiment [6] deals with reticulated platelets. Kind of experiment: Passive Antibody Transfer Model of ITP (immunothrombocytopenia). It is filed as in vivo. Conditions: C57Bl/6NCrI mice, anti-CD41 antibody; daily intraperitoneal 30 μg/kg vs saline. An excerpt: The Passive Antibody Transfer Model of ITP has been extensively used to understand the progression of chronic ITP and to rapidly evaluate the efficacy of various therapeutics (Neschadim et al., 2015). The model is characterized by a rapid onset of the ITP and clear involvement of phagocytic monocytes in platelet destruction. In addition, it provides a possibility to use self-antigens relevant to the human condition. Depending on the type, quantity, and frequency of the administered antibody it is possible to vary the severity and the persistence of the induced ITP by fine-tuning the rate and the level of platelet decline whereas the repeated administration of the monoclonal antibody simulates chronic human IT.
Female 6-week old C57Bl/6NCrI mice and genetically-modified C57Bl/6NCrI mice with neu1 deficiency (Passive Antibody Transfer Model of ITP, Neschadim et al., 2015) received escalating daily doses (68 μg/kg on the 1st and 2d days, 102 μg/kg on the third day) of anti-CD41 anti-platelet monoclonal mouse antibody (clone MWReg30) by intraperitoneal injection. The reticulated platelets were measured daily for three days by flow cytometric analysis. Control mice (C57B16) received injections of saline. […]

T2 sequence (Q9Y3R4 whole entry): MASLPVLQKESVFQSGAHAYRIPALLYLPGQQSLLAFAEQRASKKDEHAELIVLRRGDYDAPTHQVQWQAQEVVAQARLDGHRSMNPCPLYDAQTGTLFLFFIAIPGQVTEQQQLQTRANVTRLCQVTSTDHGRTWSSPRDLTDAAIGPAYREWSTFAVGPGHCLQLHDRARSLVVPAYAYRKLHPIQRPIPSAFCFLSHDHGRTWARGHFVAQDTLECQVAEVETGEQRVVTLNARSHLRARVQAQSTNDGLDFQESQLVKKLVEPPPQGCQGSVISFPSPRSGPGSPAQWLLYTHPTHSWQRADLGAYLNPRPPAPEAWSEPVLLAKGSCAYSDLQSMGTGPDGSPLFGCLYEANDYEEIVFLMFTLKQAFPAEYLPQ

For the compound `CC(=O)N[C@H]1[C@H]([C@H](O)[C@H](O)Cn2cc(-c3ccc(C(=O)O)cc3)nn2)OC(C(=O)O)=C[C@@H]1N=[N+]=[N-]` [compound 13], the IC50 in experiment [1] and in experiment [2] was above 500 µM throughout. The compound further displayed a Selectivity in experiment [3] of 20.

For `CC(=O)NC1C(N)C=C(C(=O)O)OC1C(O)C(O)Cn1cc(-c2ccc(C(=O)O)cc2)nn1` (centres unmarked) [compound 15], the 50% inhibitory concentration (IC50) in experiment [1], in experiment [4], in experiment [5] and in experiment [2] was above 500 µM in each case.

Turning to `CCCCC(=O)NCC(O)C(O)C1OC(C(=O)O)=CC(O)[C@H]1NC(C)=O` (stereo partly drawn) [compound 50, 5-Acetamido-9-pentanamido-2,6-anhydro-3,5-dideoxy-D-glycero-D-galacto-non-2-enonic acid], the platelet reduction rate result in experiment [6] is listed as “lower platelet reduction rates”.
